This note sets out measurements from ChEMBL document CHEMBL1201862, “PubChem BioAssay data set” (2004).

Among the test systems are U-251; K562; NCI-H226; RPMI-8226; CCRF-CEM; SNB-19; KM12; UACC-257; IGROV-1; M14; RXF 393; SNB-75; SK-OV-3; HT-29; A549; SF-268; SF-295; CAKI-1; NCI-H23; 786-0.
Holding throughout (assay): NCI tumour cell line growth inhibition, 48 h

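Five compound concentrations were applied to cells in 96-well plates for 48 hours; endpoints were derived by simple linear interpolation of the resulting dose-response curve. GI50 is the concentration that inhibits growth by half.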 Activity calls are given as the source filed them. No stated cut-off is given here; in the data, active = GI50 up to about 1.1 µM and inactive = higher.

Consider `COc1ccc2c(c1)CCc1c(CO)c(COC(=O)NC(C)C)n(C)c1-2`, for which the GI50 was 5.41 µM (inactive) in the assay with U-251; 2.41 µM (inactive) with K562; 2.68 µM (inactive) in the assay with NCI-H226; 2.24 µM (inactive) in the assay with RPMI-8226; 2.64 µM (inactive) with CCRF-CEM; 6.87 µM (inactive) in the assay on SNB-19. For the same compound, the GI50 in the assay on KM12 is 6.61 µM (inactive); in the assay with UACC-257, 4.42 µM (inactive); in the assay on IGROV-1 it was 5.68 µM (inactive); with M14, 6.11 µM (inactive); in the assay on RXF 393 it was 7.55 µM (inactive); in the assay on SNB-75 it was 4.82 µM (inactive). Moreover, the GI50 is 18.3 µM (inactive) in the assay on SK-OV-3; 3.14 µM (inactive) in the assay on HT-29; 6.53 µM (inactive) in the assay with A549; 6.49 µM (inactive) in the assay on SF-268; 9.35 µM (inactive) with SF-295; 5.81 µM (inactive) with CAKI-1. Further, the GI50 was 2.97 µM (inactive) with NCI-H23 and 4.41 µM (inactive) with 786-0.

`N#Cc1c(C#N)c(-c2ccccc2)n(Cc2ccccc2)c1N`: the GI50 in the assay on U-251 was 80.5 µM (inactive); with K562, > 100 µM (inactive); in the assay on NCI-H226, > 100 µM (inactive); with RPMI-8226, > 100 µM (inactive); in the assay with CCRF-CEM it was > 100 µM (inactive); with SNB-19, 29.6 µM (inactive). In addition, the GI50 in the assay on KM12 was > 100 µM (inactive); with UACC-257 it was > 100 µM (inactive); with IGROV-1, > 100 µM (inactive); in the assay on M14, > 100 µM (inactive); with RXF 393, 48.6 µM (inactive); in the assay on SNB-75, 14.4 µM (inactive). For the same compound, the GI50 with SK-OV-3 is > 100 µM (inactive); with HT-29 it was > 100 µM (inactive); with A549, > 100 µM (inactive); in the assay on SF-268 it was 47.2 µM (inactive); in the assay with SF-295, > 100 µM (inactive); with CAKI-1, > 100 µM (inactive). Also, the figures for the GI50 in the assay on NCI-H23 and with 786-0 were > 100 µM (inactive) and 35 µM (inactive), respectively.

Take `CC(=O)NNc1nc(C)c(C(/C=C/c2ccc([N+](=O)[O-])cc2)=N/NC(N)=O)s1`: the GI50 with U-251, with K562, in the assay with NCI-H226, in the assay on RPMI-8226, in the assay on CCRF-CEM and in the assay with SNB-19 was > 100 µM (inactive) throughout. The GI50 in the assay with KM12 was > 100 µM (inactive); in the assay on UACC-257 it was > 100 µM (inactive); in the assay on IGROV-1 it was 44.8 µM (inactive); with M14, > 100 µM (inactive); with RXF 393, > 100 µM (inactive); in the assay with SNB-75, > 100 µM (inactive). Moreover, the GI50 in the assay with SK-OV-3, with HT-29, in the assay with A549, with SF-268, in the assay on SF-295 and with CAKI-1 was > 100 µM (inactive) throughout. Besides, the GI50 in the assay with NCI-H23 and in the assay with 786-0 was > 100 µM (inactive) each time.

For the compound `N#CC(C#N)SCc1ccccc1`, the GI50 in the assay on U-251 was 19.5 µM (inactive); in the assay with K562, 1.12 µM (inactive); in the assay on NCI-H226 it was 30.1 µM (inactive); in the assay on RPMI-8226 it was 6.18 µM (inactive); with CCRF-CEM, 1.7 µM (inactive); in the assay with SNB-19, 21 µM (inactive). Further, the GI50 in the assay with KM12 was 19.7 µM (inactive); in the assay on UACC-257, 23.1 µM (inactive); in the assay on IGROV-1, 23.1 µM (inactive); with M14, 11.5 µM (inactive); in the assay with RXF 393 it was 26.8 µM (inactive); with SNB-75 it was 38 µM (inactive). Moreover, the GI50 is 24.4 µM (inactive) with SK-OV-3; 27.4 µM (inactive) in the assay on HT-29; 16.6 µM (inactive) with A549; 29.4 µM (inactive) in the assay with SF-268; 16.8 µM (inactive) in the assay on SF-295; 17.7 µM (inactive) in the assay on CAKI-1. Besides, the GI50 in the assay on NCI-H23 is 10.5 µM (inactive); in the assay with 786-0, 15.7 µM (inactive).

As for `CC(C)=CCc1c2c(c(O)c3c(=O)c4c(oc13)-c1ccc(O)cc1OC4C=C(C)C)C=CC(C)(C)O2` (stereo not given), the GI50 in the assay on U-251 was 12.2 µM (inactive); in the assay with K562, 8.65 µM (inactive); with NCI-H226, 21.9 µM (inactive); with RPMI-8226, 3.54 µM (inactive); in the assay with CCRF-CEM, 3.99 µM (inactive); in the assay with SNB-19, 15.3 µM (inactive). For the same compound, the GI50 is 8.04 µM (inactive) in the assay with KM12; 15.4 µM (inactive) in the assay with UACC-257; 14 µM (inactive) with IGROV-1; 18 µM (inactive) in the assay on M14; 7.29 µM (inactive) with RXF 393; 11.9 µM (inactive) in the assay on SNB-75. Moreover, the GI50 is 18.5 µM (inactive) with SK-OV-3; 13 µM (inactive) in the assay with HT-29; 10.8 µM (inactive) with A549; 14.2 µM (inactive) with SF-268; 14.6 µM (inactive) in the assay with SF-295; 20 µM (inactive) in the assay on CAKI-1. Moreover, the GI50 is 6.31 µM (inactive) in the assay with NCI-H23 and 11.4 µM (inactive) with 786-0.

Take `COc1cc(/C=C2\C[C@H]3[C@@H]4CC=C5C[C@@H](OC(C)=O)CC[C@]5(C)[C@H]4CC[C@]3(C)\C2=N\O)cc(OC)c1OC`: the GI50 in the assay on U-251 was 7.41 µM (inactive); with K562, 4.27 µM (inactive); with NCI-H226, 8.45 µM (inactive); in the assay with RPMI-8226, 0.56 µM (active); in the assay on CCRF-CEM, 4.08 µM (inactive); with SNB-19, 29.9 µM (inactive). Also, the GI50 in the assay on KM12 is 4.06 µM (inactive); with UACC-257 it was 5.74 µM (inactive); in the assay with IGROV-1 it was 10 µM (inactive); with M14, 5.73 µM (inactive); in the assay with RXF 393, 0.942 µM (active); in the assay with SNB-75, 2.5 µM (inactive). Also, the GI50 in the assay on SK-OV-3 is 25.5 µM (inactive); with HT-29, 5.15 µM (inactive); in the assay on A549, 4.69 µM (inactive); with SF-268, 7.82 µM (inactive); with SF-295, 3.21 µM (inactive); with CAKI-1, 3.33 µM (inactive). Besides, the GI50 in the assay with NCI-H23 was 5.7 µM (inactive); with 786-0 it was 5.08 µM (inactive).

Turning to `CCCCCOc1ccc(NC2=C(Cl)C(=O)c3c(O)ccc(O)c3C2=O)cc1`, the GI50 in the assay with U-251 was 6.38 µM (inactive); in the assay on K562, 3.27 µM (inactive); in the assay with NCI-H226, > 10 µM (inactive); in the assay on RPMI-8226 it was 2.43 µM (inactive); in the assay with CCRF-CEM, 3.52 µM (inactive); with SNB-19 it was 7.87 µM (inactive). For the same compound, the GI50 in the assay on KM12 was 4.14 µM (inactive); in the assay with UACC-257, 6.15 µM (inactive); with IGROV-1 it was > 10 µM (inactive); in the assay with M14 it was 3.03 µM (inactive); in the assay on RXF 393, 4.71 µM (inactive); in the assay on SNB-75 it was > 10 µM (inactive). Also, the GI50 in the assay on SK-OV-3 was > 10 µM (inactive); with HT-29, 4.75 µM (inactive); with A549, > 10 µM (inactive); with SF-268, > 10 µM (inactive); in the assay on SF-295, > 10 µM (inactive); in the assay on CAKI-1, > 10 µM (inactive). The GI50 with NCI-H23 is 3.27 µM (inactive); in the assay on 786-0 it was 1.6 µM (inactive).

`O=C(CSCC(=O)N/N=C/c1ccncc1)N/N=C/c1ccncc1`: the GI50 with U-251, with K562, in the assay with NCI-H226, with RPMI-8226, with CCRF-CEM and in the assay on SNB-19 was > 100 µM (inactive) throughout. Also, the GI50 in the assay on KM12, in the assay on UACC-257, in the assay with IGROV-1, in the assay with M14, with RXF 393 and in the assay on SNB-75 was > 100 µM (inactive) each time. The GI50 in the assay on SK-OV-3, with HT-29, in the assay with A549, with SF-268, with SF-295 and with CAKI-1 was > 100 µM (inactive) in each case. Moreover, the GI50 in the assay on NCI-H23 and with 786-0 was > 100 µM (inactive) each time.

Turning to `COc1ccc2[nH]c3c(c2c1)[C@H]1CCC(C(C)(C)C)C[C@H]1[C@H]1C(=O)N(c2ccccc2)C(=O)[C@@H]31` (stereo not given in full), the GI50 is 6.14 µM (inactive) in the assay with U-251; 20.6 µM (inactive) in the assay on K562; 27.6 µM (inactive) in the assay on NCI-H226; 33.3 µM (inactive) in the assay with RPMI-8226; 18.9 µM (inactive) in the assay with CCRF-CEM; 16.3 µM (inactive) with SNB-19. Moreover, the GI50 with KM12 was > 43.4 µM (inactive); in the assay on UACC-257, 24.2 µM (inactive); with IGROV-1 it was > 58.7 µM (inactive); with M14, 8.22 µM (inactive); in the assay with RXF 393, 9.42 µM (inactive); with SNB-75 it was 5.97 µM (inactive). Further, the GI50 in the assay with SK-OV-3 was 15.6 µM (inactive); in the assay on HT-29, > 100 µM (inactive); with A549, 12.7 µM (inactive); with SF-268, 13.1 µM (inactive); with SF-295, 7.18 µM (inactive); with CAKI-1 it was 12 µM (inactive). In addition, the GI50 in the assay on NCI-H23 was 12.1 µM (inactive); in the assay on 786-0 it was 3.86 µM (inactive).

For the compound `O=C(/C=C/c1ccc(-c2ccccc2)cc1)NCc1ccc(C(=O)NCCc2c[nH]c3ccccc23)cc1`, the GI50 was 11.9 µM (inactive) in the assay with U-251; 21.5 µM (inactive) in the assay on K562; 24.4 µM (inactive) in the assay with NCI-H226; 60.8 µM (inactive) in the assay with RPMI-8226; 13.9 µM (inactive) in the assay on CCRF-CEM; 21.7 µM (inactive) in the assay with SNB-19. The GI50 was 31 µM (inactive) in the assay on KM12; 67.3 µM (inactive) in the assay on UACC-257; 11.4 µM (inactive) in the assay with IGROV-1; 80.9 µM (inactive) in the assay on M14; 19.8 µM (inactive) in the assay with RXF 393; 11.2 µM (inactive) with SNB-75. Besides, the GI50 is 14.5 µM (inactive) with SK-OV-3; 11.5 µM (inactive) in the assay on HT-29; 19.4 µM (inactive) in the assay with A549; 39.7 µM (inactive) in the assay on SF-268; 11.1 µM (inactive) with SF-295; 16.3 µM (inactive) in the assay on CAKI-1. In addition, the GI50 with NCI-H23 is 22.1 µM (inactive); in the assay on 786-0 it was 11.1 µM (inactive).
